Measurements: patent US20090312352A1 (priority 2004, published 2009)

Assays:
Experiment in all cases: biochemical
YopH [1] = biological target: T1, YopH (Yersinia pestis, UniProt O68720); format: biochemical
YopH [2] = biological target: T1, YopH
PTP 1B = PTP 1B (Homo sapiens, UniProt P18031)
TCPTP = TCPTP (Homo sapiens, UniProt P17706)
LAR = LAR (Homo sapiens, UniProt P10586)
CD45 = CD45 (Homo sapiens, UniProt P08575)
VHR = VHR (Homo sapiens, UniProt P51452)
VH1 = VH1 (Vaccinia virus, UniProt P07239)
VHX = VHX (Homo sapiens, UniProt Q9NRW4)
HePTP = HePTP (Homo sapiens, UniProt P35236)
LMPTP B = LMPTP B (Homo sapiens, UniProt P24666)
YopH [3] = biological target: T1, YopH; format: binding

Sequence of HePTP (P35236 whole entry): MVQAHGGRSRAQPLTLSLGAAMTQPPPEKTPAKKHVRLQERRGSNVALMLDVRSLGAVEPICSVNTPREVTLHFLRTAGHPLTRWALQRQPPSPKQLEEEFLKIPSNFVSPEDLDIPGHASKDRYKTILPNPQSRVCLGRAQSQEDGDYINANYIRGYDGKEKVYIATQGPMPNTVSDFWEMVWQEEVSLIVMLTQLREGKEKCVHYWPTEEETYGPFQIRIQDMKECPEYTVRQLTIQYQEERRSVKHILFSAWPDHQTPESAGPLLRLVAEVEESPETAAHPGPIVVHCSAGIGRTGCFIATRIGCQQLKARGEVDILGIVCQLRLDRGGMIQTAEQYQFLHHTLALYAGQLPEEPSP
Sequence of VHX (Q9NRW4 whole entry): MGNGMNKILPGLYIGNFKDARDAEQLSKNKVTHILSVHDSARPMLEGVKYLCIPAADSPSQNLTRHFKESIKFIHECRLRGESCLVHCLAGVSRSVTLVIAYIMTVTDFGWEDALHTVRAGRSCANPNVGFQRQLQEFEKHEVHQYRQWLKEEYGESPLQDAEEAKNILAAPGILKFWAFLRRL
Sequence of TCPTP (P17706 whole entry): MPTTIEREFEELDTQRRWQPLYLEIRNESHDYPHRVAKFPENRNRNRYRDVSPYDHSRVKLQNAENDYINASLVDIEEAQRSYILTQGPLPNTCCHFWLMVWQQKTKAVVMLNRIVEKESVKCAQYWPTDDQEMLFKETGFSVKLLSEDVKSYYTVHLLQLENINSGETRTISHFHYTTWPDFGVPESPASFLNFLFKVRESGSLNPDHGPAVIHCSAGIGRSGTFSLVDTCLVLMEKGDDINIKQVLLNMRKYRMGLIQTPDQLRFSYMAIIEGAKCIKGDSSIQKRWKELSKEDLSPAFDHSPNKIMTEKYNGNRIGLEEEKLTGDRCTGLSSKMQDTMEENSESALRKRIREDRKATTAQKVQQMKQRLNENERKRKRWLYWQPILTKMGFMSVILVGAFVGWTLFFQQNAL
Sequence of VHR (P51452 whole entry): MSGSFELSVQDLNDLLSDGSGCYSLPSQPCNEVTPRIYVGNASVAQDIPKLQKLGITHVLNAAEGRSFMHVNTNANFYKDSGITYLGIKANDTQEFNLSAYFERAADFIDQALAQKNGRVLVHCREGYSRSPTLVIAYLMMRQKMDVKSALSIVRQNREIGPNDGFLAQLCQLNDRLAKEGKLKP
Sequence of LMPTP B (P24666 whole entry, looked up): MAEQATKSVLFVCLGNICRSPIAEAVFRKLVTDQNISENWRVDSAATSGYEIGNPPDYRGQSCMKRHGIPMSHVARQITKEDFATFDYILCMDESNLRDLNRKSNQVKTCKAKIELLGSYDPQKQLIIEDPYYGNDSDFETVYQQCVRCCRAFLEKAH
T1 sequence (O68720 1-468): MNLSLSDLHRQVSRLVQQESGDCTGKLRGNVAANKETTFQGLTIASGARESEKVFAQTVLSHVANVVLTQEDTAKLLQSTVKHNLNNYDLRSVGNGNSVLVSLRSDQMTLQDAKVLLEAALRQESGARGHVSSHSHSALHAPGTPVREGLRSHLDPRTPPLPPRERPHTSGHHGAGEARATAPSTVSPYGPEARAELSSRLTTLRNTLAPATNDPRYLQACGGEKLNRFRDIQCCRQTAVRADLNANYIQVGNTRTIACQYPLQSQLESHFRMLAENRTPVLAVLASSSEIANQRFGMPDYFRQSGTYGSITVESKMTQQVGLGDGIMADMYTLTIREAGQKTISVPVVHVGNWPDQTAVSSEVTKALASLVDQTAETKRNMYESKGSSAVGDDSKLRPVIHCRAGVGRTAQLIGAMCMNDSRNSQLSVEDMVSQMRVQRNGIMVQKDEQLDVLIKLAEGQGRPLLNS
Sequence of CD45 (P08575 26-1306): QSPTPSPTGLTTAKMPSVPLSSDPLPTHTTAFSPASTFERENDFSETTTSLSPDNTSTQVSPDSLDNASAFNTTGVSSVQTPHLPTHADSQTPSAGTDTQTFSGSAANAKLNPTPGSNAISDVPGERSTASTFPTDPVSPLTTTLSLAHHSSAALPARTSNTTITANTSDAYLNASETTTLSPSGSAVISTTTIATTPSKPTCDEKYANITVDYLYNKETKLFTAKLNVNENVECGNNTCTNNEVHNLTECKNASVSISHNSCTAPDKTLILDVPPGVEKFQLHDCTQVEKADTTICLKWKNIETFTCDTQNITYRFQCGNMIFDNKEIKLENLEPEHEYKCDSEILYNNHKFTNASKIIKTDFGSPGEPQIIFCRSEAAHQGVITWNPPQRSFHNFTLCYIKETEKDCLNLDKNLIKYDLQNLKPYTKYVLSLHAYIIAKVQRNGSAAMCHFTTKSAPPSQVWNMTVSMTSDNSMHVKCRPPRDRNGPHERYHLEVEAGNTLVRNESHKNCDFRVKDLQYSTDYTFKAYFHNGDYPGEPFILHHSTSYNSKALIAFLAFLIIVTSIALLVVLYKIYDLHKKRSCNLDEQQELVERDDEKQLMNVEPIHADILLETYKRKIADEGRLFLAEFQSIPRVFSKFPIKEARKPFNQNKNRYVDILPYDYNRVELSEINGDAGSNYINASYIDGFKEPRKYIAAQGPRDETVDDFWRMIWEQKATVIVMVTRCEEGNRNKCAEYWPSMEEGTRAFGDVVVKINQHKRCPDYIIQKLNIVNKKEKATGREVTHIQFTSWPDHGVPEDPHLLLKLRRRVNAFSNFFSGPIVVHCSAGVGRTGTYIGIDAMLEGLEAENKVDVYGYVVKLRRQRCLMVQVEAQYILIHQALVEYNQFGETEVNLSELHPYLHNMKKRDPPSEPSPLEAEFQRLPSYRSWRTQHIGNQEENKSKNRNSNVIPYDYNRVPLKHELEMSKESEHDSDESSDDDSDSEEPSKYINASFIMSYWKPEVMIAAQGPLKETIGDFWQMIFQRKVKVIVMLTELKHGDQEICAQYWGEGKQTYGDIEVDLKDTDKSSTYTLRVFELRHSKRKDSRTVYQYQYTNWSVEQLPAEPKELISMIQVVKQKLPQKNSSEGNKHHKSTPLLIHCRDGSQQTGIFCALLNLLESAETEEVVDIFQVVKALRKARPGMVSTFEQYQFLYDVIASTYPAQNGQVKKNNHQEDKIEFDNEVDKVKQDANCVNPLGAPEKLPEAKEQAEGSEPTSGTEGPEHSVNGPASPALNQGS
Sequence of LAR (P10586 30-1907): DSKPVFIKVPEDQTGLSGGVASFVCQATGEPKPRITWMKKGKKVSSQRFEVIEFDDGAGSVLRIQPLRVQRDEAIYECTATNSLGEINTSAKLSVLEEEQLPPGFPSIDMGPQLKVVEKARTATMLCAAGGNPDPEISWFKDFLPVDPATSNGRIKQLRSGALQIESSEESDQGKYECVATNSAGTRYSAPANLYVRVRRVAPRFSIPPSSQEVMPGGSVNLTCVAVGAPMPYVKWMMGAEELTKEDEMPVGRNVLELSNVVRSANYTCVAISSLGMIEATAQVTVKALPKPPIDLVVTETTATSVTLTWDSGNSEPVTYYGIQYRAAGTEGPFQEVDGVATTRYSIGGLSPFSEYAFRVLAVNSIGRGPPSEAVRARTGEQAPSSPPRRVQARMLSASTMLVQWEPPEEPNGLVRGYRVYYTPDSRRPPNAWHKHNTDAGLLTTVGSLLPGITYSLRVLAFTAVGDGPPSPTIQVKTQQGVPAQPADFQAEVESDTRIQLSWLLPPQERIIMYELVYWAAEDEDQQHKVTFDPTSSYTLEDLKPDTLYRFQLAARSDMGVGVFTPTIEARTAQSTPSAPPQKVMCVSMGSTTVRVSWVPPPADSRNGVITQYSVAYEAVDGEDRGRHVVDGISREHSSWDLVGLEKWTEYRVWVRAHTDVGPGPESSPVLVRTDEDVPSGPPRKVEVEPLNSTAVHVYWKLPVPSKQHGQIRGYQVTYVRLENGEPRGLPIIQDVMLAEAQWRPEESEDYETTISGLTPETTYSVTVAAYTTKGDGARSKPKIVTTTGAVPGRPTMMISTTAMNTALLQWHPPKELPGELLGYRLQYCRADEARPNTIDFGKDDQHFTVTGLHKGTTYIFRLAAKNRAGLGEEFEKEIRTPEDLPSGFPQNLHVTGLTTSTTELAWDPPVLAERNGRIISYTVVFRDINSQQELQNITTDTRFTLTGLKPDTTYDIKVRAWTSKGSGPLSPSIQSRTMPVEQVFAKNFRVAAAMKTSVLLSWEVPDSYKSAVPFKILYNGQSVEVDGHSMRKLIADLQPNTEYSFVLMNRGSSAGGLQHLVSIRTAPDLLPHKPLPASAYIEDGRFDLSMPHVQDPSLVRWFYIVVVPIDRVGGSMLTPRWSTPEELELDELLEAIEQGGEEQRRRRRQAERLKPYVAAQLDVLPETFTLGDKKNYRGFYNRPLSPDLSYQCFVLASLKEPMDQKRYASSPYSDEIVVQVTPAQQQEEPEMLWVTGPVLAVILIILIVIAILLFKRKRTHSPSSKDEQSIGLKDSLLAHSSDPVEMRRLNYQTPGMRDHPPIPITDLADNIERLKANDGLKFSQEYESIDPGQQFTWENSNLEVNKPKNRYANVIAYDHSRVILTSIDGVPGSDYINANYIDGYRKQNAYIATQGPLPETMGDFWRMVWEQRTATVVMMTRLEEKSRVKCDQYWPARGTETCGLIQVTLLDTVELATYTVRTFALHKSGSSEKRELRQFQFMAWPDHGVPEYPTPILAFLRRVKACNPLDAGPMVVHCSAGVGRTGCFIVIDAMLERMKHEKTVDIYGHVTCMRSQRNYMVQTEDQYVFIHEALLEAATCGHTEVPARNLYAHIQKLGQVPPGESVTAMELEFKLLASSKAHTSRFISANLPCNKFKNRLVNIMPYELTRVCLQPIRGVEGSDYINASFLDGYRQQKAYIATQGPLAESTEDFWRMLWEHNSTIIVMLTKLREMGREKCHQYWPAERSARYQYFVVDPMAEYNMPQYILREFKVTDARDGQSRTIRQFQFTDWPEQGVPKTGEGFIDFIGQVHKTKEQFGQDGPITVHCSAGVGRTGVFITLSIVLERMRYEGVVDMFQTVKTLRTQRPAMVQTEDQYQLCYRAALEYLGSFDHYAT

O=C(O)c1cccc(-c2ccc(/C=C3\SC(=S)N(Cc4ccccc4)C3=O)o2)c1 [Compound 5680282]
Ki (YopH [1]; Ki(c)): 17.7 µM | Ki (YopH [1]; Ki(u)): 42.8 µM

O=C1NC(=S)NC(=O)C1=Cc1ccc(-c2ccc(C(=O)O)c(O)c2)o1 [Compound 5557271, 4-(5-((tetrahydro-4,6-dioxo-2-thioxopyrimidin-5(6H)-ylidene)methyl)furan-2-yl)-salicylic acid]
fold lower inhibitory constant than salicylic acid alone (YopH [1]): 2667 fold | Ki (YopH [1]; Ki): 0.33 µM | Ki (YopH [1]; Ki(c)): 0.33 µM | IC50 (YopH [2]): 1.4 µM | IC50 (PTP 1B): 9.7 µM | IC50 (TCPTP): 11 µM | IC50 (LAR): 10.9 µM | IC50 (CD45): 1.7 µM | IC50 (VHR): 34.7 µM | IC50 (VH1): > 250 µM | IC50 (VHX): > 250 µM | IC50 (HePTP): 32.4 µM | IC50 (LMPTP B): > 250 µM | Kd (YopH [3]): 0.33 µM

O=Cc1ccc(-c2ccc(C(=O)O)c(O)c2)o1 [Compound 8164075]
YopH inhibition (in words) (YopH [1]): still capable of inhibiting YopH in the low micromolar range | Ki (YopH [1]; Ki(c)): 7.89 µM | Ki (YopH [1]; Ki(u)): 61.2 µM

O=C1NC(=O)/C(=C/c2ccc(-c3ccc(O)c(C(=O)O)c3)o2)S1 [Compound 5842540]
Ki (YopH [1]; Ki(c)): 1.13 ± 0.198 µM | Ki (YopH [1]; Ki(u)): 14.1 ± 4.21 µM | IC50 (YopH [2]): 3.9 µM | IC50 (PTP 1B): 12 µM | IC50 (TCPTP): 30.2 µM | IC50 (LAR): 12.2 µM | IC50 (CD45): 5.7 µM | IC50 (VHR): 27.5 µM | IC50 (VH1): > 250 µM | IC50 (VHX): 38.5 µM | IC50 (HePTP): 34.5 µM | IC50 (LMPTP B): 215 µM | Kd (YopH [3]): 1.34 µM

O=C1NC(=S)S/C1=C\c1ccc(-c2cc([N+](=O)[O-])ccc2O)o1 [Compound 5740279]
Ki (YopH [1]; Ki(c)): 17.1 µM | Ki (YopH [1]; Ki(u)): 16.5 µM

c1ccc(Nc2nc(-c3ccccc3)[n+](-c3ccccc3)s2)cc1 [Compound 5858065]
Ki (YopH [1]; Ki(c)): 1.87 ± 0.924 µM | Ki (YopH [1]; Ki(u)): 2.57 ± 0.563 µM

O=C(O)c1cc(-c2ccc(C=C3C(=O)c4ccccc4C3=O)o2)ccc1O [Compound 5378650]
Ki (YopH [1]; Ki(c)): 3.2 µM

O=C1NC(=S)S/C1=C\c1ccc(-c2cc(C(=O)O)ccc2Cl)o1 [Compound 6431206]
Ki (YopH [1]; Ki(c)): 16.2 µM

COc1ccc(-c2ccc(/C=C3\SC(=S)NC3=O)o2)cc1[N+](=O)[O-] [Compound 6701338]
Ki (YopH [1]; Ki(c)): 6.53 µM | Ki (YopH [1]; Ki(u)): 9.8 µM

O=C1NC(=O)/C(=C\c2ccco2)S1 [Compound 5377816]
YopH inhibition (in words) (YopH [1]): complete loss of YopH inhibition

N=C1NC(=O)/C(=C\c2ccc(-c3cccc(C(=O)O)c3)o2)S1 [Compound 5377688]
Ki (YopH [1]; Ki(c)): 19.2 µM

Cc1cc(C(=O)O)ccc1-c1ccc(/C=C2\SC(=S)NC2=O)o1 [Compound 6338530]
Ki (YopH [1]; Ki(c)): 11.4 µM | Ki (YopH [1]; Ki(u)): 84.2 µM

O=C1NC(=S)S/C1=C/c1ccc(-c2ccc(C(=O)O)cc2)o1 [Compound 5660015]
Ki (YopH [1]; Ki(c)): 19.7 µM

O=C(Cn1nnc(-c2ccccc2)n1)N/N=C/c1ccc(-c2ccc(O)c(C(=O)O)c2)o1 [Compound 5680029]
Ki (YopH [1]; Ki(c)): 2.8 µM | Ki (YopH [1]; Ki(u)): 8.9 µM | IC50 (YopH [2]): 5.1 µM | IC50 (PTP 1B): 14.3 µM | IC50 (TCPTP): 22.7 µM | IC50 (LAR): 35.8 µM | IC50 (CD45): 15.1 µM | IC50 (VHR): 31.6 µM | IC50 (VH1): > 250 µM | IC50 (VHX): 34.9 µM | IC50 (HePTP): 47.9 µM | IC50 (LMPTP B): > 250 µM | Kd (YopH [3]): 1.04 µM

O=C(O)c1cc(-c2ccc(/C=N/n3cnnc3)o2)ccc1O [Compound 5381181]
Ki (YopH [1]; Ki(c)): 3.73 µM

O=C(O)c1ccccc1O [salicylic acid, reference compound]
Ki (YopH [1]; Ki): 882 µM

CSCCC(C(=O)O)N1C(=O)/C(=C\c2ccc(-c3ccc([N+](=O)[O-])cc3)o2)SC1=S (centres unmarked) [Compound 5850330]
Ki (YopH [1]; Ki(c)): 9.78 ± 3.32 µM | IC50 (YopH [2]): 11.5 µM | IC50 (PTP 1B): 38.8 µM | IC50 (TCPTP): 197 µM | IC50 (LAR): 20.8 µM | IC50 (CD45): 38.7 µM | IC50 (VHR): 49 µM | IC50 (VH1): > 250 µM | IC50 (VHX): 106 µM | IC50 (HePTP): 95.9 µM | IC50 (LMPTP B): > 300 µM

O=C1NC(=O)C(=Cc2ccc(-c3ccc(O)c(C(=O)O)c3)o2)C(=O)N1 [Compound 5377894]
fold higher Ki value (YopH [1]): 12.5 fold | Ki (YopH [1]; Ki): 4.1 µM | Ki (YopH [1]; Ki(c)): 4.13 µM

O=C1NC(=O)/C(=C\c2ccc(-c3cccc([N+](=O)[O-])c3)o2)S1 [Compound 5376305]
Ki (YopH [1]; Ki(u)): 50 µM

Cc1cc(C)c2nc3s/c(=C\c4ccc(-c5ccc(O)c(C(=O)O)c5)o4)c(=O)n3c2c1 [Compound 5675844]
Ki (YopH [1]; Ki): 8.8 µM | Ki (YopH [1]; Ki(c)): 8.82 µM | Ki (YopH [1]; Ki(u)): 10.9 µM

O=C1C=CC(=O)C(c2ccc(C(=O)O)cc2)=C1 [4-(3,6-dioxocyclohexa-1,4-dienyl)benzoic acid]
time-dependence of inhibition (YopH [1]): clearly showed a time-dependent inhibition

Cc1cc2nc3s/c(=C\c4ccc(-c5ccc(O)c(C(=O)O)c5)o4)c(=O)n3c2cc1C [Compound 5670901]
Ki (YopH [1]; Ki): 0.92 µM | Ki (YopH [1]; Ki(c)): 0.922 µM | Ki (YopH [1]; Ki(u)): 8.3 µM | IC50 (YopH [2]): 2 µM | IC50 (PTP 1B): 7 µM | IC50 (TCPTP): 11 µM | IC50 (LAR): 7.7 µM | IC50 (CD45): 2.5 µM | IC50 (VHR): 21.2 µM | IC50 (VH1): > 250 µM | IC50 (VHX): > 250 µM | IC50 (HePTP): 32.6 µM | IC50 (LMPTP B): > 250 µM | Kd (YopH [3]): 0.54 µM

Cc1ccc(-c2ccc(/C=C3\SC(=S)NC3=O)o2)c([N+](=O)[O-])c1 [Compound 6145062]
Ki (YopH [1]; Ki(u)): 94.1 µM

CCN1C(=O)/C(=C\c2ccc(-c3ccc(O)cc3)o2)SC1=S [Compound 5667408]
Ki (YopH [1]; Ki(c)): 38.6 µM | Ki (YopH [1]; Ki(u)): 55.7 µM

COc1ccc(C2=CC(=O)C=CC2=O)cc1 [Compound 5760449]
Ki (YopH [1]; Ki(c)): 6.52 ± 1.19 µM | Ki (YopH [1]; Ki(u)): 8.02 ± 0.589 µM
